Measurements published in paper PMC9786748, “Carvacrol and HP-β-Cyclodextrin Complexes: Extensive Characterization and Potential Cytotoxic Effect in Human Colorectal Carcinoma Cells” (Pharmaceutics, 2022).
Values after ≈ are worked out from the molar mass of the structure shown. Like-named read-outs stand apart in the source and are kept apart here.

Columns and labels:
[1] = Solubility of carvacrol in the absence of cyclodextrins (S0) at different pH; format: physicochemical; details: for S0 (solubility of carvacrol) / solubility at 60 min: absence of CDs; for solubility at 60 min: aqueous buffer, thermodynamic from solid
Protocol: (§1) The solubility studies of carvacrol, in the presence of CDs, were performed according to the method described by Higuchi and Connors in 1965, with slight modifications. […] For an evaluation of the pH effect in the process of complex formation, these solutions were prepared in different buffer solutions: 100 mM sodium acetate buffer, pH 3.5 and 5.5; 100 mM sodium phosphate buffer, pH 6.5 and 7.0; and 100 mM sodium borate buffer, pH 8.5. To each solution, a saturating amount of the carvacrol under analysis was added, then the solutions were kept in an ultrasonic bath for 60 min in the dark at 25 °C until equilibrium was reached. After this point, the solutions were filtered through 0.45 μm nylon to remove the excess carvacrol.
(§2) To quantify the amount of monoterpene in each filtrate, the complexes were disrupted by adding 80% ethanol. Each solution was then introduced into a gas chromatograph, coupled to a mass spectrometer (Shimadzu QP 2010) equipped with an Slb-5 ms (30 m × 0.25 mm × […]) capillary column. The operating conditions are as follows: the starting temperature is 70 °C, the temperature is increased at a rate of 4 °C/min until it reaches 160 °C and is then increased to 280 °C at a rate of 30 °C/min, then held there for 6 min; the inlet temperature is 250 °C, the injection type is a 1:20 split mode, with helium used as the carrier gas. Component identification is based on the relative elution times and comparison of the mass spectra of each peak against a database containing the system.
(§3) Once the concentrations of carvacrol in each sample were quantified, the values obtained were plotted against the concentrations of CDs. For the calculation of KC, the slope and intercept of the phase diagrams related to the solubility studies were determined, according to Equation (1):(1) KC=Slope/S0 (1−Slope) where S0 is the solubility of carvacrol at 25 °C, in the absence of cyclodextrins, and Slope is the gradient of the phase solubility diagrams.

[2] = Phase solubility study of carvacrol with α-CDs (Higuchi and Connors); format: physicochemical
Protocol: as §1, §2, §3
(§4) To determine the complexation efficiency (CE) of carvacrol, Equation (2) was used:(2) CE=[carvacrol−CDs]/[CD]=S0× KC.
(§5) The molar ratio (MR) of carvacrol:CDs was calculated using the CE values and Equation (3):(3) carvacrol:CDs=1:(1+1/CE).

[3] = Phase solubility study of carvacrol with β-CDs (Higuchi and Connors); format: physicochemical; details: for CE (complexation efficiency) / KC: β-CDs
Protocol: as §1, §2, §3, §4, §5

[4] = Phase solubility study of carvacrol with HP-β-CDs (Higuchi and Connors); format: physicochemical
Protocol: as §1, §2, §3, §4, §5

[5] = Complexation of carvacrol with HP-β-CD by ultrasound (US); format: physicochemical
Protocol: as §3
The solubility method was developed from that used by Higuchi and Connors, with minor modifications. We added an excess of carvacrol to an aqueous solution that increased the concentration to 100 mM HP-β-CD, in 100 mL of water, at 25 °C. […] The aqueous solutions were filtered through 0.45 µm nylon to remove the excess free carvacrol. To determine the amount of carvacrol complexed, samples were diluted in ethanol-water at 80% and analyzed via gas chromatography–mass spectrometry (CG–MS).

[6] = Complexation of carvacrol with HP-β-CD by microwave irradiation (MWI); format: physicochemical; details: for increase in solubility of carvacrol / KC: HP-β-CDs
Protocol: as §3
The calculation of the complexation constant (KC) between carvacrol and HP-β-CDs was carried out by the addition of different concentrations of HP-β-CDs to 100 mL of water, maintaining a 1:1 molar ratio. Aqueous HP-β-CD solutions (0–100 mM) were irradiated with microwaves for 30 s at 10 s intervals until the dissolution reached 70 °C. The carvacrol was then added to each sample and irradiated again for 30 s at the same intervals (10 s) until the samples reached 70 °C. Subsequently, the samples were shaken and held for 12 h in scintillation vials, sealed with parafilm, and protected from light.
Then, we repeated the above procedure by irradiating the sample again until it reached 70 °C. The solution was then filtered through 0.45 μm nylon to remove the excess carvacrol. Finally, the concentration of monoterpene was determined via CG-MS.

[7] = tested on: HCT-116 colorectal cancer cells; assay: Cell viability assay (tetrazolium), HCT-116; format: cell-based; details: Homo sapiens; HCT-116, 72 h incubation
Protocol: (§6) Colorectal adenocarcinoma (HCT-116) and non-tumoral fetal lung fibroblast (MRC5) cell lines were obtained from the American Type Culture Collection (ATCC, Rockville, MD, USA). The cell lines were cultivated in high glucose Dulbecco’s modified Eagle’s medium (DMEM) and Eagle’s minimum essential medium (EMEM), respectively, containing 10% heat-inactivated fetal bovine serum (FBS), 2 mM glutamine, 50 U/mL penicillin and 50 µg/mL streptomycin (Sigma-Aldrich Chemical Co., St. Louis, MO, USA) in an atmosphere of 5% CO2 and 95% humidified air at 37 °C. The subculture was complete when 90% confluence was reached. Fibroblasts for up to 15 doublings were used for the experiments.
(§7) Exponentially growing cells were plated in triplicate in flat-bottomed 96-well plates (Nunc, Roskilde, Denmark) at 1500 cells/well for HCT-116 and 4000 cells/well for MRC5. The following day, compounds were added in serial dilutions, from 50 µM to 1000 µM. Control wells contained compound-free medium plus 0.1% dimethyl sulfoxide (DMSO). The plates were incubated for 3 days in a humidified 5% CO2 incubator and cell viability was determined. […] The formazan crystals were dissolved in 200 µL DMSO for 30 min and the absorbance was read at 570 nm in a microtiter plate reader. The results were calculated as:(7) cell viability (%)=average O.D of wells/average O.D of control wells.

[8] = tested on: MRC-5 lung fibroblast cells; assay: Cell viability assay (tetrazolium), MRC-5; format: cell-based; details: Homo sapiens, MRC5; MRC-5, 72 h incubation
Protocol: as §6, §7

[9] = end of the 7-day period, 300 µM, DMEM with HCT-116 cells, 37 °C
Protocol: Carvacrol release from the free and complexed carvacrol was monitored by chromatography (see Section 2.2). Briefly, 1 × 10^5 HCT-116 cells were grown for up to 7 days in DMEM, supplemented with 300 µM free or complexed HP-β-CD-carvacrol, at 37 °C. At each appropriate time point (days 1–7), 1 mL aliquots were withdrawn and replaced with an equal volume of fresh medium. All determinations were made in triplicate.

[10] = weak acid; cited from earlier work
[11] = design: method as in PMID 25298799; details: with HP-β-CDs; cited from earlier work
[12] = design: method as in PMID 25298799; details: with RAMEB; cited from earlier work
[13] = design: method as in PMID 25298799; details: with CRYSMEB; cited from earlier work

In the case of Cc1ccc(C(C)C)cc1O [carvacrol], the “S0 (solubility of carvacrol)” value ([1]; pH 3.5, 25 °C) is reported as 2760 ± 200 µM, the “S0 (solubility of carvacrol)” value ([1]; pH 6.5, 25 °C) is reported as 920 ± 110 µM and the “decrease of solubility at pH 7.0 relative to acidic pH” value ([1]; pH 7.0 vs acidic pH (S0 = 2.76)) is reported as 80%. For the same molecule, the “S0 (solubility of carvacrol)” value ([1]; pH 8.5, 25 °C) was 760 ± 130 µM, the solubility at 60 min ([1]; sodium acetate buffer, pH 3.5, 25 °C) was 2760 µM (≈ 415 µg/mL) and the solubility at 60 min ([1]; sodium acetate buffer, pH 5.5, 25 °C) was 1650 ± 160 µM (≈ 248 µg/mL). The solubility at 60 min ([1]; sodium borate buffer, pH 8.5, 25 °C) was 760 µM (≈ 114 µg/mL), the solubility at 60 min ([1]; sodium phosphate buffer, pH 6.5, 25 °C) was 920 µM (≈ 138 µg/mL) and the solubility at 60 min ([1]; sodium phosphate buffer, pH 7.0, 25 °C) was 560 ± 30 µM (≈ 84.1 µg/mL). For the same molecule, the “CE (complexation efficiency)” value ([2]; pH 3.5) was 0.298, the KC ([2]; pH 3.5) was 108 ± 16 L/mol and the “CE (complexation efficiency)” value ([2]; pH 5.5) was 0.317. For the same molecule, the KC ([2]; pH 5.5) was 192 ± 24 L/mol, the “CE (complexation efficiency)” value ([2]; pH 6.5) was 0.220 and the KC ([2]; pH 6.5) was 239 ± 42 L/mol. The “CE (complexation efficiency)” value ([2]; pH 7.0) was 0.224, the KC ([2]; pH 7.0) was 400 ± 56 L/mol and the “CE (complexation efficiency)” value ([2]; pH 8.5) was 0.216. The KC ([2]; pH 8.5) was 284 ± 37 L/mol, the “KC with β-CDs relative to KC with α-CD” value ([3]; compared with α-CD (400 ± 56)) was 8 times higher and the “CE (complexation efficiency)” value ([3]; pH 3.5) was 0.386. The KC ([3]; pH 3.5) was 140 ± 21 L/mol, the “CE (complexation efficiency)” value ([3]; pH 5.5) was 1.234 and the KC ([3]; pH 5.5) was 748 ± 19 L/mol. For the same molecule, the “CE (complexation efficiency)” value ([3]; pH 6.5) was 0.797, the KC ([3]; pH 6.5) was 866 ± 180 L/mol and the “CE (complexation efficiency)” value ([3]; pH 7.0) was 1.941. The KC ([3]; pH 7.0) was 3466 ± 115 L/mol, the “CE (complexation efficiency)” value ([3]; pH 8.5) was 0.441 and the KC ([3]; pH 8.5) was 580 ± 45 L/mol. For the same molecule, the “CE (complexation efficiency)” value ([4]; pH 3.5) was 0.546, the KC ([4]; pH 3.5) was 198 ± 19 L/mol and the “CE (complexation efficiency)” value ([4]; pH 5.5) was 0.540. The KC ([4]; pH 5.5) was 327 ± 37 L/mol, the “CE (complexation efficiency)” value ([4]; pH 6.5) was 1.399 and the KC ([4]; pH 6.5) was 1521 ± 73 L/mol. For the same molecule, the “CE (complexation efficiency)” value ([4]; pH 7.0) was 2.824, the KC ([4]; pH 7.0) was 5042 ± 176 L/mol and the “CE (complexation efficiency)” value ([4]; pH 8.5) was 0.739. The KC ([4]; pH 8.5) was 973 ± 94 L/mol, the “increase in solubility of carvacrol” value ([5]; HP-β-CDs, US method) was 132.9 times and the KC ([5]; HP-β-CDs, US, pH 7.0) was 6909 ± 161 L/mol. The KC ([5]; HP-β-CDs, ultrasound (US), 24 h) was 8129 ± 194 L/mol, the S0 ([5]; achieved by US) was 0.56 mmol/L and the “increase in solubility of carvacrol” value ([6]; MWI, 24 h) was 151.8 times. The “increase in solubility of carvacrol” value ([6]; MWI, 48 h) was 155.6 times, the KC ([6]; MWI, at 24 h, pH 7.0) was 8129 ± 194 L/mol and the KC ([6]; MWI, at 48 h, pH 7.0) was 6811 ± 107 L/mol. The KC ([6]; microwave irradiation (MWI)) was 6909 ± 161 L/mol, the S0 ([6]; in the case of MWI) was 0.35 mmol/L and the IC50 [7] was 385 µM. The IC50 [8] was 398 µM, the “soluble drug (carvacrol release)” value [9] was 4.37 ± 1.61% and the pKa [10] was 10.38.

For O=C(O)/C=C/c1ccc(O)cc1 [p-coumaric acid], the “CE (complexation efficiency)” value [11] is given as 2.30, the “CE (complexation efficiency)” value [12] is given as 2.57 and the “CE (complexation efficiency)” value [13] is given as 1.89.
